Measured values taken from patent publication US8933070B2, “Methods of targeting PTEN mutant diseases and compositions therefor” (University Health Network, priority 2010, dated 2015).

Legend:
human PLK4 = target: T1, human PLK4 (Homo sapiens, UniProt O00444); test: PLK4 inhibition assay (indirect ELISA); format: biochemical
T1 construct: amino terminal GST fusion of residues 1-391 of human PLK4; made in house; host or cells: E. coli
T1 sequence (O00444 1-391): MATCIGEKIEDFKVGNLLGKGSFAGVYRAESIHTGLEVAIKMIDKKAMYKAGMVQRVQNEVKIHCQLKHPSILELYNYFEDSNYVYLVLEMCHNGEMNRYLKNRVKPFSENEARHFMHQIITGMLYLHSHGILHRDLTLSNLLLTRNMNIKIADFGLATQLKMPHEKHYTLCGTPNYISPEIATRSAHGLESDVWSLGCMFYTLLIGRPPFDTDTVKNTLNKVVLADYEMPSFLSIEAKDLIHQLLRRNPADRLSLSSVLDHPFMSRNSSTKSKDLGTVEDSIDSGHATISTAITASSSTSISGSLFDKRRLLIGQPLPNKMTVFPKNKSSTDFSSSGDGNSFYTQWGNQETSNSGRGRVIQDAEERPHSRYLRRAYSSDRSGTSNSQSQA
Procedure: The protein was purified from clarified cell extracts after induction at 15° C. overnight using glutathione sepharose, gel permeation chromatography, and ion exchange (Resource Q). The resulting protein was dephosphorylated with lambda phosphatase (NEB cat# P0753), and resolved from the phosphatase using gluthione sepharose. The dephosphorylated GST-PLK4 was stored in aliquots at −80° C. until use.
PLK4 activity was measured using an indirect ELISA detection system. […] The colourimetric reaction was allowed to continue for 5 minutes, followed by addition of stop solution (0.5 N sulphuric acid), and quantified by detection at 450 nm with either a monochromatic or filter based plate reader (Molecular Devices M5 or Beckman DTX880, respectively).
Compounds were pre-incubated in the presence of enzyme for 15 minutes prior to addition of ATP and the activity remaining quantified using the above described activity assay. […] The IC50 value was determined using a non-linear 4 point logistic curve fit (XLfit4, IDBS) with the formula; (A+(B/(1+((x/C)^D)))), where A=background value, B=range, C=inflection point, D=curve fit parameter.

Aurora B = target: T2, Aurora B (Homo sapiens, UniProt Q96GD4); test: Aurora B inhibition assay (Z-Lyte); format: biochemical; conditions: read-out: IC50 Ranges Aurura B
T2 construct: purchased Invitrogen PV3970
T2 sequence (Q96GD4 whole entry): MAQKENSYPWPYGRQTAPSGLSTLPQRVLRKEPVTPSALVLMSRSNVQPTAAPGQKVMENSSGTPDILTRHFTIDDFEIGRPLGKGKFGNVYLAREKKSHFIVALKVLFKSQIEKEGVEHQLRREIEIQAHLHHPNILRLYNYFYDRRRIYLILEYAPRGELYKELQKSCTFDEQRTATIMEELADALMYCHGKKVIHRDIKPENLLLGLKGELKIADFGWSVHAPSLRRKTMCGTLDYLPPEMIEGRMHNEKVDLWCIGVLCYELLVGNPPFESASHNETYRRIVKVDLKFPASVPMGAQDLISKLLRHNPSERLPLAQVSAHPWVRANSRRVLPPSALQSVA
Procedure: Aurora B inhibition was determined using the Z-Lyte assay kit from Invitrogen. […] The % inhibition values were determined according to the manufacturer's directions and IC50 values were obtained using a non-linear 4 point logistic curve fit (XLfit4, IDBS).

[1] = tested on: MDA-MB-468 basal breast cancer cell line; test: Cell growth inhibition, Sulforhodamine B (SRB) assay; format: cell-based; conditions: Homo sapiens, MDA-MB-468, 120 h, read-out: Cell Line GI50 Range MDA-MB-468
Procedure: Breast cancer and normal cells were seeded at various concentrations, ranging from 1500 to 4000 per 80 μl according to cell growth rate, into 96-well plates 24 hours before compound overlay. Each 10 mM stock solution in 100% DMSO of the compounds was diluted with Opti-MEM I Reduced-Serum Medium (Invitrogen, Canada) to make concentration ranges from 50 nM to 250 μM. 20 μl from each concentration was added to the cells to make the final concentration range from 10 nM to 50 μM. The cells were cultured at 37° C. for 5 days before the Sulforhodamine B (SRB) assay was performed to assess cell survival. SRB is a water-soluble dye that binds to the basic amino acids of cellular proteins. Thus, colorimetric measurement of the bound dye provides an estimate of the total protein mass and is related to cell number. The cells were fixed in situ by gently aspirating off the culture media and adding 50 μl ice-cold 10% Tri-chloroacetic Acid (TCA) per well and incubation at 4° C. for 30-60 min. The plates were washed with tap water five times and allowed to air dry for 5 min. 50 μl of 0.4% (w/v) SRB solution in 1% (v/v) acetic acid was added per well and incubated for 30 mM at RT for staining. Following staining, plates were washed four times with 1% acetic acid to remove any unbound dye and then allowed to air dry for 5 min. The stain was solubilized with 100 μl of 10 mM Tris pH 10.5 per well. Absorbances were read at 570 nm. The cell survival percentage at each compound concentration was calculated over the cell DMSO control, which was growing in the presence of 0.1% DMSO (0.5% in the case of 50 μM compounds). Cell viability GI50 values were calculated using GraphPad PRISM software (GraphPad Software, Inc.).

FGFR2 = FGFR2 (Homo sapiens, UniProt P21802); test: Kinase selectivity assay (CEREP, HTRF); format: biochemical; conditions: read-out: % Inhibition at 10 μM Concentration
FGFR2, sequence (P21802 22-821): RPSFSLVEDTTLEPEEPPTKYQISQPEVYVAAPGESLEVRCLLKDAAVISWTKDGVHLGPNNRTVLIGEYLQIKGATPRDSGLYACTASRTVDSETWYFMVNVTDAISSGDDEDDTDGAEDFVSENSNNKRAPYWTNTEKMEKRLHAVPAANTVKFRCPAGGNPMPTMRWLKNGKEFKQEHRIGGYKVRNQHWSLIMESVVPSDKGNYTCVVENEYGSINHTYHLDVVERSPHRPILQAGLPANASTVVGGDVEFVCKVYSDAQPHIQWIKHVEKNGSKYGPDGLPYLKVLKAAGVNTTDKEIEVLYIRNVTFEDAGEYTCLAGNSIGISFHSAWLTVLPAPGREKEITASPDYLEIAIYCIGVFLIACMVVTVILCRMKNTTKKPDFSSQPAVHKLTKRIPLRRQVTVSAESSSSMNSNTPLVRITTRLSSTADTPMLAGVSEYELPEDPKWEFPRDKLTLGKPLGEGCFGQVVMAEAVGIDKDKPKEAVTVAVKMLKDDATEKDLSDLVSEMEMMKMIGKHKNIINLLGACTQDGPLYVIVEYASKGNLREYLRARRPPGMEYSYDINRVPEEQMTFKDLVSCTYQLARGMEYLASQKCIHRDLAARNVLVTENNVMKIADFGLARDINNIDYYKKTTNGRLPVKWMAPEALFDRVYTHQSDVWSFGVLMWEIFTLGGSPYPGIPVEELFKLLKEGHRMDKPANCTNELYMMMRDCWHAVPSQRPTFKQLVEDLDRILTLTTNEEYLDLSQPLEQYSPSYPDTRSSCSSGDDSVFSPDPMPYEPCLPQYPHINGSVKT
Procedure: (§1) The inhibitory activity of selected compounds was evaluated against a panel of 45 different kinase enzymes by CEREP, France. The assays were performed using standard HTRF assay methods as documented by CEREP against the human orthologues of Abl kinase, Akt1/PKBa, AMPKa, BMX kinase (Etk), Brk, CaMK2a, CaMK4, CDC2/CDK1 (cycB), CHK1, CHK2, c-Met kinase, CSK, EphB4 kinase, ERK1, ERK2 (P42mapk), FGFR2 kinase, FGFR4 kinase, FLT-1 kinase (VEGFR1), FLT-3 kinase, Fyn kinase, IGF1R kinase, IRK (InsR), JNK 2, KDR kinase (VEGFR2), Lck kinase, Lyn kinase, MAPKAPK2, MEK1/MAP2K1, p38a kinase, p38d kinase, p38g kinase, PDGFRb kinase, PDK1, PKA, PKCa, PKCb1, PKCb2, PKCg, Ret kinase, ROCK2, RSK2, Src kinase, Syk, and TRKA. The % Inhibition was determined by the formula; % Inhibition=100×(1−(experimental value−background value)/(high activity control−background value)).

KDR (VEGFR2) = KDR (VEGFR2) (Homo sapiens, UniProt P35968); test: Kinase selectivity assay (CEREP, HTRF); format: biochemical; conditions: read-out: % Inhibition at 10 μM Concentration
KDR (VEGFR2), sequence (P35968 20-1356): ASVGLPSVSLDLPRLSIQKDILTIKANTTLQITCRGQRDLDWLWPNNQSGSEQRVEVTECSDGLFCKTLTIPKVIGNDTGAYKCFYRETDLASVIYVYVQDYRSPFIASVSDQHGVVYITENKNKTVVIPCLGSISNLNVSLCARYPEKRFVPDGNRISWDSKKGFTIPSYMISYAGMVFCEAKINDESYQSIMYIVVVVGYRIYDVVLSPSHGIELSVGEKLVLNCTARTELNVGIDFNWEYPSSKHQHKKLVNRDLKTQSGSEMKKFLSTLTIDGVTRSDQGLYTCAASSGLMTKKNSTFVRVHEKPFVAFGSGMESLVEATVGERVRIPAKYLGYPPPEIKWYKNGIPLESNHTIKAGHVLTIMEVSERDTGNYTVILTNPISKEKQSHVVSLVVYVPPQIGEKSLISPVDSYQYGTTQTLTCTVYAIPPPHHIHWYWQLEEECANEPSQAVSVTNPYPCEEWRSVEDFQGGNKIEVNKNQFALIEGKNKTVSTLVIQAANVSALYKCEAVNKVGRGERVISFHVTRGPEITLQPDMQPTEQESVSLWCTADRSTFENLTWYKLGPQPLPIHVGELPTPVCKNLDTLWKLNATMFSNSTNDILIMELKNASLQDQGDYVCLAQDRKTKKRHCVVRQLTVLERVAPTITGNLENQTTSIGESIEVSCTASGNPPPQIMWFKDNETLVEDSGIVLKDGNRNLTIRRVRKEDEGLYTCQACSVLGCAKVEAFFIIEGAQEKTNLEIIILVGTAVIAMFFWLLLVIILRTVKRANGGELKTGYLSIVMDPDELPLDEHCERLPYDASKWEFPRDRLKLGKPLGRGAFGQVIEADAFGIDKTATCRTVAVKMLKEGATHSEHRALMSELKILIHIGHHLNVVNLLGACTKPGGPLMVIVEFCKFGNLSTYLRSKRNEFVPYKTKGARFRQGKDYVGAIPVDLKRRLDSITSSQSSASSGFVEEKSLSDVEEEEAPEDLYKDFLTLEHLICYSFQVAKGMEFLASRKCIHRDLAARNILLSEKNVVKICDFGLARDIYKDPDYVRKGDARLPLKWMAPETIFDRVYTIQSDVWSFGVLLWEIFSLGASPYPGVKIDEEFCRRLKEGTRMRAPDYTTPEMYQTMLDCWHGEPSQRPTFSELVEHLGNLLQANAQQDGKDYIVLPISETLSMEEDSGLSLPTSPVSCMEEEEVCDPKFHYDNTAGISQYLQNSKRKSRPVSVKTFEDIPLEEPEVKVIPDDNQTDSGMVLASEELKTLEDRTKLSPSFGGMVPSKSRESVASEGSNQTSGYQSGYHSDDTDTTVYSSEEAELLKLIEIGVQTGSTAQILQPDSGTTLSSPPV
Procedure: as §1

[2] = tested on: MDA-MB-231 breast cancer cell line; test: Cell growth inhibition, SRB assay, extended panel; format: cell-based; conditions: Homo sapiens, MDA-MB-231, read-out: GI50 Range MDA-MB-231
Procedure: Breast cancer and normal cells were seeded at various concentrations, ranging from 1500 to 4000 per 80 μl according to cell growth rate, into 96-well plates 24 hours before compound overlay. Each 10 mM stock solution in 100% DMSO of the compounds was diluted with Opti-MEM I Reduced-Serum Medium (Invitrogen, Canada) to make concentration ranges from 50 nM to 250 μM. 20 μl from each concentration was added to the cells to make the final concentration range from 10 nM to 50 μM. The cells were cultured at 37° C. for 5 days before the Sulforhodamine B (SRB) assay was performed to assess cell survival. SRB is a water-soluble dye that binds to the basic amino acids of cellular proteins. Thus, colorimetric measurement of the bound dye provides an estimate of the total protein mass and is related to cell number. The cells were fixed in situ by gently aspirating off the culture media and adding 50 μl ice-cold 10% Tri-chloroacetic Acid (TCA) per well and incubation at 4° C. for 30-60 min. The plates were washed with tap water five times and allowed to air dry for 5 min. […] Absorbances were read at 570 nm. The cell survival percentage at each compound concentration was calculated over the cell DMSO control, which was growing in the presence of 0.1% DMSO (0.5% in the case of 50 μM compounds). Cell viability GI50 values were calculated using GraphPad PRISM software (GraphPad Software, Inc.).

518A2 melanoma cell line = test: Cell growth inhibition, SRB assay, extended panel; format: cell-based; conditions: Homo sapiens, 518A2, read-out: GI50 Range 518A2
Procedure: (§2) Breast cancer cells (MCF-7, MDA-MB-468 and HCC1954), colon cancer cells (SW620) and lung cancer cells (A549), together with human mammary epithelial primary cells (HMEC) were seeded (1000 to 4000 per 80 μl per well depending on the cell growth rate) into 96-well plates 24 hours before compound overlay. Compounds were prepared as 10 mM stock solutions in 100% DMSO which were diluted with DMEM (Dulbecco's Modified Eagle's Medium) cell growth Medium (Invitrogen, Canada) containing 10% FBS (Fetal Bovine Serum) to concentrations ranging from 50 nM to 250 μM. Aliquots (20 μl) from each concentration were overlaid to 80 μl of the pre-seeded cells in the 96-plates to make final concentrations of 10 nM to 50 μM. The cells were cultured for 5 days before the Sulforhodamine B (SRB) assay was performed to determine the compound's cell growth inhibition activity.
(§3) Sulforhodamine B (Sigma, Canada) is a water-soluble dye that binds to the basic amino acids of cellular proteins. Thus, colorimetric measurement of the bound dye provides an estimate of the total protein mass that is related to the cell number. The cells are fixed in situ by gently aspirating off the culture media and adding 50 μl ice cold 10% Trichloroacetic Acid (TCA) per well and incubated at 4° C. for 30-60 min. The plates are washed with water five times and allowed to air dry for 5 min. Addition of 50 μl 0.4% (w/v) SRB solution in 1% (v/v) acetic acid to each well and incubatation for […] at RT completes the staining reaction. Following staining, plates are washed four times with 1% acetic acid to remove unbound dye and then allowed to air dry for 5 min. The stain is solubilized with 100 μl of 10 mM Tris pH 10.5 per well. Absorbance is read at 570 nm.
(§4) The percentage (%) of relative growth inhibition was calculated by comparing to DMSO-treated only cells (100%). GI50's were determined for compounds with cytotoxic activity. The GI50 was calculated using GraphPad PRISM software (GraphPad Software, Inc., USA).
(§5) The SRB assay described above was used to assay test compounds against the extended panel (Table 6).

[3] = tested on: BT-474 breast cancer cell line; test: Cell growth inhibition, SRB assay, extended panel; format: cell-based; conditions: Homo sapiens, BT-474, read-out: GI50 Range BT-474
Procedure: as §2, §3, §4, §5

[4] = tested on: SK-OV-3 ovarian cancer cell line; test: Cell growth inhibition, SRB assay, extended panel; format: cell-based; conditions: Homo sapiens, SK-OV-3, read-out: GI50 Range SK-OV-3
Procedure: as §2, §3, §4, §5

With `COc1ccc2c(c1)[C@@]1(C[C@@H]1c1ccc3c(-c4ccc(N5CCN(C)CC5)nc4)n[nH]c3c1)C(=O)N2` (racemic) [Compound 2] the IC50 (human PLK4) was < 5 µM, the IC50 (Aurora B) was < 5 µM and the GI50 [1] was < 5 µM.

For `CN(C)Cc1ccc(/C=C/c2n[nH]c3cc([C@H]4C[C@@]45C(=O)Nc4ccccc45)ccc23)cc1` (racemic) [Compound 35], the GI50 [1] was < 5 µM.

In the case of `COc1ccc2c(c1)/C(=C\c1ccc3c(/C=C/c4ccc(N5CCN(C)CC5)nc4)n[nH]c3c1)C(=O)N2` [Compound 3], the IC50 (Aurora B) is reported as < 5 µM, the inhibition at 10 µM (FGFR2) is reported as 4% and the inhibition at 10 µM (KDR (VEGFR2)) is reported as 32%. The GI50 [2] was < 5 µM, the GI50 (518A2 melanoma cell line) was < 5 µM and the GI50 [3] was < 5 µM. For the same compound, the GI50 [4] was < 5 µM.
